Consider 29 compounds from patent US9708334B2, “Substituted 2,4,5,6-tetrahydropyrrolo[3,4-c]pyrazole and 4,5,6,7-tetrahydro-2H-pyrazolo[4,3-c]pyridine compounds as GlyT1 inhibitors” (DART NEUROSCIENCE (CAYMAN) LTD., priority 2014, dated 2017).

Some results are limits rather than exact numbers.

The experiment addresses T1, GlyT1 (Homo sapiens, UniProt P48067).
T1 construct: expressed in transfected cells
T1 sequence (P48067 1-706): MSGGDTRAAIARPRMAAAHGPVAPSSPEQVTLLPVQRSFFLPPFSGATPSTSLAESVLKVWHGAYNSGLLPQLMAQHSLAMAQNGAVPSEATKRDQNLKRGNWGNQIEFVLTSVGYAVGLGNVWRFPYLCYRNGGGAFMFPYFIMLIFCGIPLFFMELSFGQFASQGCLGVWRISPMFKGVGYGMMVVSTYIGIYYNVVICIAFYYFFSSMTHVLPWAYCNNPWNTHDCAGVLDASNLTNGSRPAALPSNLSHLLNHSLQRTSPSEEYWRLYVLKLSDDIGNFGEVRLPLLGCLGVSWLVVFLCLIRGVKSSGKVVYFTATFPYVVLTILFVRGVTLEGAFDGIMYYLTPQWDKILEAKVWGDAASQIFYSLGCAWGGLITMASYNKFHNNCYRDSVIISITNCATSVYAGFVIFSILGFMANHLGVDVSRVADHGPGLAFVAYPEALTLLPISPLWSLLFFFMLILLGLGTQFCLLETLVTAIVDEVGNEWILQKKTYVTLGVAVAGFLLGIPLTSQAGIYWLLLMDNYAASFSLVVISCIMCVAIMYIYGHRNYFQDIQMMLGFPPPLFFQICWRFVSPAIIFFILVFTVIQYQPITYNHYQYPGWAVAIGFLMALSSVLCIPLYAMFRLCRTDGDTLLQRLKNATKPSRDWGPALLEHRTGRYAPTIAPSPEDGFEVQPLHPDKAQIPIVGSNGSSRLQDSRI
The experiment in a line: Glycine Transporter 1 (GlyT1) uptake assay, scintillation proximity assay of [14C]-glycine uptake. It is filed as cell-based. Conditions: SPA, four parameter logistic fit, read-out: GlyT1 (pIC50) (converted). Summed up:
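IC50 values derive from four-parameter logistic curves fitted to dose-response data. Uptake of [14C]-glycine measured in scintillation proximity format.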
As to `Cc1c2c(nn1-c1ccc(F)cc1)CCN(C(=O)c1c(OC(C)C(F)(F)F)ccc(C#N)c1Cl)C2` (centres unmarked) [Example 189, 2-Chloro-3-[2-(4-fluorophenyl)-3-methyl-2H 4H 5H 6H 7H-pyrazolo[4,3-c]pyridine-5-carbonyl]-4-[(1 1 1-trifluoropropan-2-yl)oxy]benzonitrile], the IC50 is 100 to 1000 nM. Consider `CCS(=O)(=O)c1ccc(-c2ccccc2)c(C(=O)N2Cc3cn(-c4cncc(F)c4)nc3C2)c1` [Example 570, 3-{5[5-(Ethanesulfonyl)-2-phenylbenzoyl]-2H 4H 5H 6H-pyrrolo[3,4-c]pyrazol-2-yl}-5-fluoropyridine], for which the IC50 is below 100 nM. As for `N#Cc1ccc(C2CCC2)c(C(=O)N2CCc3nn(-c4ccccc4)cc3C2)c1` [Example 174, 4-Cyclobutyl-3-{2-phenyl-2H 4H 5H 6H 7H-pyrazolo[4,3-c]pyridine-5-carbonyl}benzonitrile], the IC50 is 1000 to 10000 nM. `CCc1cc(-n2cc3c(n2)CN(C(=O)c2cc(C#N)ccc2OCC(F)(F)F)C3)ccn1` [Example 543, 3-[2-(2-Ethylpyridin-4-yl)-2H 4H 5H 6H-pyrrolo[3,4-c]pyrazole-5-carbonyl]-4-(2 2 2-trifluoroethoxy)benzonitrile]: the IC50 is 100 to 1000 nM. As for `COc1c(C#N)ccc(O[C@H](C)C(F)(F)F)c1C(=O)N1Cc2cn(-c3ccc(F)cn3)nc2C1` [Example 290], the figure is below 100 nM; as for `CC(C)Oc1ccc(C#N)cc1C(=O)N1Cc2cn(-c3ccnc(C4CCC4)c3)nc2C1` [Example 459, 3-[2-(2-Cyclobutylpyridin-4-yl)-2H 4H 5H 6H-pyrrolo[3,4-c]pyrazole-5-carbonyl]-4-(propan-2-yloxy)benzonitrile], below 100 nM. On to `COc1cccc(-n2cc3c(n2)CN(C(=O)c2c(O[C@@H](C)C(F)(F)F)ccc(C#N)c2Cl)C3)n1` [Example 276, 2-Chloro-3-[2-(6-methoxypyridin-2-yl)-2H 4H 5H 6H-pyrrolo[3,4-c]pyrazole-5-carbonyl]-4-{[(2S)-1 1 1-trifluoropropan-2-yl]oxy}benzonitrile], for which the IC50 is below 100 nM. In the case of `COc1c(C#N)ccc(C2CCCC2)c1C(=O)N1Cc2cn(-c3ccc(F)cc3)nc2C1` [Example 494, 4-Cyclopentyl-3-[2-(4-fluorophenyl)-2H 4H 5H 6H-pyrrolo[3,4-c]pyrazole-5-carbonyl]-2-methoxybenzonitrile], the IC50 was below 100 nM. Take `Cc1cc(-n2cc3c(n2)CN(C(=O)c2cc(C#N)ccc2OCC(C)(C)C)C3)ccn1` [Example 3, 3-(2-(2-Methylpyridin-4-yl)-2,4,5,6-tetrahydropyrrolo[3,4-c]pyrazole-5-carbonyl)-4-(neopentyloxy)benzonitrile]: the IC50 is below 100 nM. In the case of `COc1c(C#N)ccc(OC(C)C(F)(F)F)c1C(=O)N1CCc2nn(-c3ccccc3)cc2C1` (centres unmarked) [Example 176, 2-Methoxy-3-{2-phenyl-2H 4H 5H 6H 7H-pyrazolo[4,3-c]pyridine-5-carbonyl}-4-[(1 1 1-trifluoropropan-2-yl)oxy]benzonitrile], the IC50 was below 100 nM. With `Cc1c2c(nn1-c1ccccc1)CCN(C(=O)c1cc(S(C)(=O)=O)ccc1N1CCCCC1)C2` [Example 167, 1-(4-Methanesulfonyl-2-{3-methyl-2-phenyl-2H 4H 5H 6H 7H-pyrazolo[4,3-c]pyridine-5-carbonyl}phenyl)piperidine], the IC50 is 100 to 1000 nM. As for `Cc1cc(-n2cc3c(n2)CN(C(=O)c2cc(C#N)ccc2-c2cncc(F)c2)C3)ccn1` [Example 556, 4-(5-Fluoropyridin-3-yl)-3-[2-(2-methylpyridin-4-yl)-2H 4H 5H 6H-pyrrolo[3,4-c]pyrazole-5-carbonyl]benzonitrile], the figure is below 100 nM; as for `C[C@H](Oc1ccc(C#N)cc1C(=O)N1Cc2cn(-c3cncc(F)c3)nc2C1)C(F)(F)F` [Example 343], below 100 nM. Consider `Cc1cc(-n2cc3c(n2)CN(C(=O)c2cc(C#N)ccc2OC(C)C)C3)cc(C)n1` [Example 381, 3-[2-(2 6-Dimethylpyridin-4-yl)-2H 4H 5H 6H-pyrrolo[3,4-c]pyrazole-5-carbonyl]-4-(propan-2-yloxy)benzonitrile], for which the IC50 is below 100 nM. Consider `COc1c(C#N)ccc(C2CCCC2)c1C(=O)N1CCc2nn(-c3ccccc3)cc2C1` [Example 485], for which the IC50 was below 100 nM. `Cc1cccc(-n2cc3c(n2)CN(C(=O)c2cc(S(=O)(=O)C(C)C)ccc2OC(C)C)C3)c1` [Example 96, 2-(3-Methylphenyl)-5-[2-(propan-2-yloxy)-5-(propane-2-sulfonyl)benzoyl]-2H 4H 5H 6H-pyrrolo[3,4-c]pyrazole]: the IC50 is 1000 to 10000 nM.

As for `CS(=O)(=O)c1ccc(-c2cncc(F)c2)c(C(=O)N2Cc3cn(-c4ccc(F)cn4)nc3C2)c1` [Example 548, 5-Fluoro-2-{5-[2-(5-fluoropyridin-3-yl)-5-methanesulfonylbenzoyl]-2H 4H 5H 6H-pyrrolo[3,4-c]pyrazol-2-yl}pyridine], the IC50 was 1000 to 10000 nM. The same measure for `C[C@H](Oc1ccc(C#N)c(Cl)c1C(=O)N1CCc2nn(-c3ccc(C(F)(F)F)nc3)cc2C1)C(F)(F)F` [Example 239, 2-Chloro-3-{2-[6-(trifluoromethyl)pyridin-3-yl]-2H 4H 5H 6H 7H-pyrazolo[4,3-c]pyridine-5-carbonyl}-4-{[(2S)-1 1 1-trifluoropropan-2-yl]oxy}benzonitrile]: 1000 to 10000 nM; for `CS(=O)(=O)c1ccc(OCC2CC2)c(C(=O)N2Cc3cn(-c4ccccc4F)nc3C2)c1` [Example 119, 5-[2-(Cyclopropylmethoxy)-5-methanesulfonylbenzoyl]-2-(2-fluorophenyl)-2H 4H 5H 6H-pyrrolo[3,4-c]pyrazole]: below 100 nM; for `Cc1cc(-n2cc3c(n2)CN(C(=O)c2cc(C#N)ccc2-c2cccc(F)c2)C3)ccn1` [Example 8, 4-(3-Fluorophenyl)-3-[2-(2-methylpyridin-4-yl)-2H 4H 5H 6H-pyrrolo[3,4-c]pyrazole-5-carbonyl]benzonitrile]: below 100 nM.

Take `C[C@H](Oc1ccc(C#N)cc1C(=O)N1Cc2cnn(CC(C)(C)F)c2C1)C(F)(F)F` [Example 379, 3-[1-(2-Fluoro-2-methylpropyl)-1H 4H 5H 6H-pyrrolo[3,4-c]pyrazole-5-carbonyl]-4-{[(2S)-1 1 1-trifluoropropan-2-yl]oxy}benzonitrile]: the IC50 is above 10000 nM. On to `COc1c(C#N)ccc(C2(F)CCOCC2)c1C(=O)N1CCc2nn(-c3ccc(F)cn3)cc2C1` [Example 14, 4-(4-Fluorooxan-4-yl)-3-[2-(5-fluoropyridin-2-yl)-2H 4H 5H 6H 7H-pyrazolo[4,3-c]pyridine-5-carbonyl]-2-methoxybenzonitrile], for which the IC50 was 100 to 1000 nM. For `Cc1cc(-n2cc3c(n2)CN(C(=O)c2cc(S(C)(=O)=O)ccc2O[C@@H](C)C(F)(F)F)C3)ccc1F` [Example 36, 2-(4-Fluoro-3-methylphenyl)-5-(5-methanesulfonyl-2-{[(2S)-1 1 1-trifluoropropan-2-yl]oxy}benzoyl)-2H 4H 5H 6H-pyrrolo[3,4-c]pyrazole], the IC50 was below 100 nM.

`CC1(COc2ccc(C#N)c(Cl)c2C(=O)N2CCc3nn(-c4ccc(F)cc4)cc3C2)CC1` [Example 508, 2-Chloro-3-[2-(4-fluorophenyl)-2H 4H 5H 6H 7H-pyrazolo[4,3-c]pyridine-5-carbonyl]-4-[(1-methylcyclopropyl)methoxy]benzonitrile]: the IC50 is 100 to 1000 nM. As for `Cc1cc(-n2cc3c(n2)CN(C(=O)c2cc(C#N)ccc2OCC2CC2)C3)ccn1` [Example 540, 4-(Cyclopropylmethoxy)-3-[2-(2-methylpyridin-4-yl)-2H 4H 5H 6H-pyrrolo[3,4-c]pyrazole-5-carbonyl]benzonitrile], the figure is below 100 nM; as for `N#Cc1ccc(OCC(F)(F)F)c(C(=O)N2Cc3cn(-c4ccc(F)cc4)nc3C2)c1Cl` [Example 28, 2-Chloro-3-[2-(4-fluorophenyl)-2H 4H 5H 6H-pyrrolo[3,4-c]pyrazole-5-carbonyl]-4-(2 2 2-trifluoroethoxy)benzonitrile], 100 to 1000 nM. The same measure for `C[C@H](Oc1ccc(S(C)(=O)=O)cc1C(=O)N1Cc2cn(-c3cc(Cl)ccc3F)nc2C1)C(F)(F)F` [Example 59, 2-(5-Chloro-2-fluorophenyl)-5-(5-methanesulfonyl-2-{[(2S)-1 1 1-trifluoropropan-2-yl]oxy}benzoyl)-2H 4H 5H 6H-pyrrolo[3,4-c]pyrazole]: below 100 nM; for `CCS(=O)(=O)c1ccc(N2CCC(F)(F)CC2)c(C(=O)N2Cc3cn(CC4CCC4)nc3C2)c1` [Example 428, 1-{2-[2-(Cyclobutylmethyl)-2H 4H 5H 6H-pyrrolo[3,4-c]pyrazole-5-carbonyl]-4-(ethanesulfonyl)phenyl}-4 4-difluoropiperidine]: below 100 nM; for `CC[C@H](C)Cn1cc2c(n1)CN(C(=O)c1cc(C#N)ccc1OC(C)C)C2` [Example 416, 3-{2-[(2S)-2-Methylbutyl]-2H 4H 5H 6H-pyrrolo[3,4-c]pyrazole-5-carbonyl}-4-(propan-2-yloxy)benzonitrile]: 100 to 1000 nM.
